SMILES strings stand for the structures.

Pest or weed control data for 9 molecules are collected here from US5364870A (priority 1993, dated 1994).

Assay in all cases: whole plant or invertebrate
What all share (format): in vivo

In assay [1] the test system is rice blast (Piricularia oryzae). Particulars: Pyricularia oryzae, 192 h, read-out: % Control RB (percent disease control).
Assay [2] has as its system wheat powdery mildew (Erysiphe graminis f. sp. tritici). Particulars: Blumeria graminis, read-out: % Control WPM (percent disease control).
The subject of assay [3] is rice sheath blight (Pellicularia filamentosa f. sp. sasiki). As to conditions: Oryza sativa, 120 h, read-out: % Control RSB (percent disease control).
In assay [4] the test system is cucumber downy mildew (Pseudoperonospora cubensis). Particulars: 168 h, read-out: % Control CDM (percent disease control).
Assay [5] deals with wheat stem rust (Puccinia graminis f. sp. tritici Race 15B-2). Particulars: 336 h, read-out: % Control WSR (percent disease control).

`CCCCC(CNC=O)(Cn1cncn1)c1ccc(Cl)cc1` (stereo not shown) [Example 1, N-(2-(4-Chlorophenyl)-2-[(1,2,4-triazol-1-yl)methyl]hexyl)formamide]: the pest or weed control at 200 ppm was 0% in assay [1]; 80% in assay [2]; 0% in assay [3]; 0% in assay [4]; 0% in assay [5].

In the case of `[C-]#[N+]CC(CCCC)(Cn1cncn1)c1ccc(Cl)cc1` (stereo not shown) [Example 2, 2-(4-Chlorophenyl)-2-[(1,2,4-triazol-1-yl)methyl]hexylisocyanide], the pest or weed control at 200 ppm in assay [1] was found to be 0%; in assay [2], 80%; in assay [3] it was 0%; in assay [4], 0%; in assay [5], 100%.

On to `CCCCC(C=O)(Cn1cncn1)c1ccc(Cl)cc1` (stereo not shown) [Example 3, 2-(4-Chlorophenyl)-2-[(1,2,4-triazol-1-yl)methyl]hexanal], for which the pest or weed control at 200 ppm in assay [1] was determined as 70%; in assay [2], 100%; in assay [3] it was 50%; in assay [4], 0%; in assay [5] it was 100%.

In the case of `C=CC(CCCC)(Cn1cncn1)c1ccc(Cl)cc1` (stereo not shown) [Example 4, 3-(4-Chlorophenyl)-3-[(1,2,4-triazol-1-yl)methyl]-1-heptene], the pest or weed control at 200 ppm is 80% in assay [1]; 100% in assay [2]; 60% in assay [3]; 80% in assay [4]; 100% in assay [5].

As to `CCCCC(Cn1cncn1)(C(=O)N=[N+]=[N-])c1ccc(Cl)cc1` (stereo not shown) [Example 5, 2-(4-Chlorophenyl)-2-[(1,2,4-triazol-1-yl)methyl]hexanoylazide], the pest or weed control at 200 ppm in assay [2] stood at 100%; in assay [3], 0%; in assay [4], 20%; in assay [5], 70%.

For the molecule `CCCCC(C=NO)(Cn1cncn1)c1ccc(Cl)cc1` (stereo not shown) [Example 6, 2-(4-Chlorophenyl)-(E,Z)-1-hydroxyamino-2-[(1,2,4-triazol-1-yl)methyl]hexanal], the pest or weed control at 200 ppm in assay [1] is 0%; in assay [2] it was 100%; in assay [3] it was 0%; in assay [4], 0%; in assay [5], 100%.

Consider `CCCCC(Cn1cncn1)(NC=O)c1ccc(Cl)cc1` (stereo not shown) [Example 8, N-[2-(4-Chlorophenyl)-1-(1,2,4-triazol-1-yl)-2-hexyl]formamide], for which the pest or weed control at 200 ppm in assay [1] is 0%; in assay [2] it was 100%; in assay [4], 0%; in assay [5] it was 60%.

As for `[C-]#[N+]C(CCCC)(Cn1cncn1)c1ccc(Cl)cc1` (stereo not shown) [Example 9, 2-(4-Chlorophenyl)-1-(1,2,4-triazol-1-yl)-2-hexylisocyanide], the pest or weed control at 200 ppm stood at 80% in assay [1]; 100% in assay [2]; 0% in assay [3]; 0% in assay [4]; 90% in assay [5].

For `CCCCC(Cn1cncn1)(NC(C)=O)c1ccc(Cl)cc1` (stereo not shown) [Example 10, N-[2-(4-Chlorophenyl)-1-(1,2,4-triazol-1-yl)-2-hexyl]acetamide], the pest or weed control at 200 ppm was found to be 0% in assay [1]; 30% in assay [2]; 70% in assay [3]; 0% in assay [4]; 0% in assay [5].
